Where “and” joins values, the source holds several entries; their conditions need not be identical. Equal entries are not always repeated.
Tests used:
human TNF-α = biological target: T1, human TNF-α (Homo sapiens, UniProt P01375); details: in vivo
T1 construct: purchased Chemicon, Inc

NFkappaB translocation = details: mouse, in vivo
LeTx pre-sensitized mice = details: mouse, in vivo

T1 sequence (P01375 77-233 limits assumed): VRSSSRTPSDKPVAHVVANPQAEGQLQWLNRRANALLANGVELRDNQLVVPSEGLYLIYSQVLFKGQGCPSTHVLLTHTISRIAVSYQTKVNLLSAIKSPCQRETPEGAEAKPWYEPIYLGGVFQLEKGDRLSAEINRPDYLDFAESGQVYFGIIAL

Etanercept
prevention of lethality (human TNF-α): prevents lethality | protection when the death initiator is human TNF-α (human TNF-α): protects

Cc1ccc(=O)n(-c2ccccc2)c1 [Pirfenidone]
survival enhancement (NFkappaB translocation): 40% and 20%

PAM3-CSK-4
initiation of RDP (LeTx pre-sensitized mice): initiates RDP | initiation of RDP (death initiator) (LeTx pre-sensitized mice): death initiators

Source: patent US20100247525A1 (priority 2006, published 2010)
